Measurements taken from patent US8853277B2, “Nitroxide therapy for the treatment of von Hippel—Lindau disease (VHL) and renal clear cell carcinoma (RCC)” (The United States of America, as represented by the …, priority 2009, dated 2014).

How the values were obtained:
[1] = tested on: 786-0 (VHL−/−) cells; assay: 786-0 (VHL−/−) subcutaneous tumor growth in SCID/BEIGE mice, Tempol in drinking water; type: in vivo; conditions: 2 mM in drinking water
Protocol: The tumor inhibitory effect of stable nitroxides were studied in vivo using mice with mutations in the Prkdc gene (SCID, which is associated severe combined immunodeficiency), and bg (BEIGE) gene. Twenty female SCID/BEIGE mice (C.B-Igh-1b/GbmsTac-Prkdc^scid-Lyst^bg N7 (CBSCBG) from Taconic (Hudson, N.Y.)) were injected with about 8 million 786-0 (VHL−/−) cells subcutaneously on the right flank. Starting on the day of injection, Tempol was diluted in PBS and added twice a week to the water bottle feeding a group of ten injected mice. The final concentration of Tempol in water was 2 mM. The control group of ten remaining mice received an equivalent amount of PBS in water twice a week. The volume of the tumors and weight of the mice were recorded once a week for up to 100 days. When the control group tumor volume reached 1 cm^3, tumors of 8 mice maintained as controls were harvested. At the same time, 4 of the animals maintained on Tempol were harvested and fast-frozen or paraffin embedded for further experiments. The average tumor volume as a function of time for each group is depicted in FIG. 2.

[2] = tested on: HIF-2α; assay: Western blot of HIF-2α in nuclear proteins of 786-0 RCC cells; type: cell-based, human; conditions: 786-0 cells, 5 mM, two to four hours, compared to Tempol-H or growth medium (control)
Protocol: The human sporadic RCC cell line 786-0 was obtained from the American Tissue Culture Collection (ATCC) (Manassas, Va.). This cell line contains a single inactivated VHL allele, produces no VHL protein, is deficient for HIF-la expression, and constitutively expresses HIF-2α. Gnarra et al., Nat. Genet., 7: 85-90 (1994) and Maxwell et al., Nature, 399: 271-275 (1999). Cultures of 786-0 cells were pre-incubated for one hour in KREB's buffer (115 mM NaCl, 5.9 mM KCl, 1.2 mM MgCl2, 1.2 mM NaH2PO4, 1.2 mM Na2SO4, 2.5 mM CaCl2, and 25 mM NaHCO3) at pH 7.4 and with 4.5 g/L of glucose. Cells were then treated for two to four hours with (i) Tempol (5 mM) obtained from Sigma Aldrich (St. Louis, Mo.), (ii) its non-functional hydroxylamine (protonated, reduced) variant: 1,4-dihydroxy-2,2,6,6-tetramethylpiperidine (Tempol-H) (5 mM) (Sigma Aldrich), or (iii) growth medium as a negative control. Cells were harvested, nuclear protein extractions performed, and protein concentrations were measured by BCA assay from Pierce (Rockford, Ill.). Aliquots of extracted nuclear proteins (20 μg) were loaded in a 7.5% polyacrylamide gel and separated by sodium dodecyl sulfate polyacrylamide gel electrophoresis (SDS-PAGE). Proteins were transferred to PVDF membranes, which were then blocked for one to sixteen hours in a solution of 5% dry milk. […]

[3] = tested on: HIF2 α; assay: HIF-2α levels in eight other cell lines from patients with VHL mutations; type: cell-based, human; conditions: Tempol treatment
[4] = tested on: 786-0 cells (VHL−/−); assay: 786-0 (VHL−/−) subcutaneous tumor growth in SCID/BEIGE mice, Tempol in chow; type: in vivo; conditions: 10 mg/g of food, after ten weeks, compared to control mice fed normal chow (P<0.05)
Protocol: Twenty female SCID/BEIGE mice were injected with 786-0 cells (VHL−/−) subcutaneously on the right flank, as described in Example 2. Starting on the day of injection, a control group of ten injected mice were fed standard chow (NIH-031, Zeigler Brothers, Inc. (Gardners, Pa.)) and a group ten injected mice received chow supplemented with Tempol. The Tempol diet supplement was made by a cold press technique from powdered Tempol uniformly mixed with bacon-flavored mouse chow (Bio-Serv Inc. (Frenchtown, N.J.)) providing a Tempol concentration of 10 mg/g of food. Bacon-flavored chow without Tempol was also added to the control diet. The volume of the tumors and the weight of the mice were recorded once a week for more than ten weeks. Tumor volumes as a function of time are depicted in FIG. 3. When the tumor volumes of the control group reached 1 cm^3, the tumors of all mice were harvested and fast-frozen or paraffin embedded for further experiments.

In the case of `CC1(C)CC(O)CC(C)(C)N1[O]` [Tempol, 4-hydroxy-2,2,6,6-tetramethylpiperidine-1-oxyl], the “tumor size when sacrificed at the 80 day time point” value ([1]; 80 days, versus control animals) is reported as “smaller tumors”, the “average tumor volume as compared to the control group” value ([1]; SCID/BEIGE mice, up to 100 days) is reported as “markedly lower average tumor volume” and the “tumor size at 100 days” value ([1]; four mice maintained up to 100 days) is reported as “quite small”. For the same compound, the HIF-2α levels [2] was “significantly reduced”, the “HIF2 α levels” value [3] was “reduced HIF2 α levels significantly” and the tumor growth [4] was “reduced by a statistically significant amount”.
